Laboratory results: PMC11200585, “Prospects for Prostate Cancer Chemotherapy: Cytotoxic Evaluation and Mechanistic Insights of Quinolinequinones with ADME/PK Profile” (Biomedicines, 2024)
Structures can show the parent of a compound that is named as a salt.

Tests used:
DU-145 cells [1] = experiment: Cell cycle assay (flow cytometry, PI); format: cell-based, human; conditions: 24 h, highest concentrations
Description: Cells were subjected to AQQ1 and DOXO treatments as previously described for apoptosis necrosis analysis. For cell cycle analysis, a cell population of 1 × 10^6 was collected, centrifuged, and the supernatant was removed. The resulting cellular pellet was re-suspended in 70% cold ethanol in PBS. Subsequently, the cells underwent a single PBS wash, followed by incubation in PBS containing […] PI (Sigma-Aldrich, St. Louis, MO, USA) and 2 mg/mL DNase-free RNase-A (Affymetrix, Inc., Santa Barbara, CA, USA) for 30 min at room temperature in a light-protected environment. Analysis was performed using the BD FACS Calibur Flow Cytometry System, and the BD CellQuest Pro Software software (version 5.1, Becton Dickinson, USA) was employed to determine cell cycle phase distributions in comparison to the control group.

HCT-116 cells = experiment: MTT assay; format: cell-based; conditions: Homo sapiens, 24 h, mean ± SEM
Description: (§1) For the MTT assay, DU-145, MDA-MB-231, HCT-116, and HUVEC cells (American Type Culture Collection) were seeded at a concentration of 1 × 10^4 cells per well in 96-well plates and allowed to incubate overnight, ensuring proper adherence. Subsequently, a series of concentrations for both AQQ1 and AQQ2 (ranging from 1 to 100 µM) were added to the culture medium with a final concentration of 1% DMSO, and cells were subjected to an additional 24 h incubation period. The control group only received 1% DMSO (Biomatik, Cambridge, ON, Canada). To establish a baseline for comparison, DOXO (Saba, İstanbul, Turkey), a known chemotherapeutic agent, was administered at equivalent concentrations. Following the incubation period, MTT (3-(4,5-dimethylthiazol-2-yl)-2,5-diphenyltetrazolium bromide) (Biomatik, Canada) assay was carried out to assess cell viability. Finally, the absorbance was quantified at 590 nm using a BioTek Epoc plate reader (Biotek, Winooski, VT, USA). The derived data were analysed using GraphPad Prism 8 software to calculate the inhibitory concentration 50 (IC50) values of the test compounds.

MDA-MB-231 cells = experiment: MTT assay; format: cell-based; conditions: Homo sapiens, 24 h, mean ± SEM
Description: as §1

DU-145 cells [2] = experiment: MTT assay; format: cell-based; conditions: Homo sapiens, 24 h, mean ± SEM
Description: as §1

[3] = test system: Human Umbilical Vein Endothelial Cells (HUVEC); experiment: MTT assay; format: cell-based; conditions: 24 h, mean ± SEM
Description: as §1

IC50 (HCT-116 cells): 24.4 ± 6.9 µM
IC50 (MDA-MB-231 cells): 59.1 ± 9.06 µM
IC50 (DU-145 cells [2]): < 100 µM
Structure (SMILES): COc1cccc2c1C(=O)c1c(O)c3c(c(O)c1C2=O)C[C@@](O)(C(=O)CO)C[C@@H]3O[C@H]1C[C@H](N)[C@H](O)[C@H](C)O1 [DOXO, Doxorubicin HCl, reference compound]
population of cells in the G0/G1 phase (DU-145 cells [1]): showed a similar effect on DU-145 cells
IC50 [3]: 57.5 ± 9.82 µM
